According to US20140350273A1, “PEDIATRIC USES OF CABAZITAXEL” (AVENTIS PHARMA S.A., priority 2012, published 2014):
Like-named read-outs stand apart in the source and are kept apart here.

Tested on: human osteosarcoma DM77
Assay type: in vivo
Details: for Tumor Volume Data (Day 21) Median / ΔT/ΔC % / ΔT/ΔC: day 21; for MTTE / T-C: volume endpoint 1400 mm^3
Description: In the reported examples supporting this invention, vials of the clinical formulation of cabazitaxel and docetaxel were used. […] The resultant solution contains 10 mg/mL of cabazitaxel. Stock solution of cabazitaxel was then diluted in 0.9% sodium chloride.
This efficacy may be quantified, for example, as changes in tumor volume for each treated (T) and control (C) group, which are calculated for each animal and each day by subtracting the tumor volume on the day of first treatment (staging day) from the tumor volume on the specified observation day. This allows calculating the tumor growth inhibition: ΔT/ΔC=(median delta T/median delta C)×100. Individual tumor volume changes from baseline are thereafter analyzed by a non-parametric two-way ANOVA-TYPE (with factors: group and repeated days) followed by a post-hoc contrasts analysis, with Bonferroni-Holm adjustment for multiplicity, comparing all treated groups to the control group. […] A probability less than 5% (p<0.05) was considered as significant.
Based on the National Cancer Institute (NCl) standards, a ΔT/ΔC≦40% is the minimal level required to declare activity.
This efficacy may also be quantified by the number of tumor regressions observed after therapy. Individual mice reporting a tumor volume ≦50% of the Day 0 measurement for two consecutive measurements over a seven day period were considered partial responders (PR). Individual mice lacking palpable tumors (<4×4 mm^2 for two consecutive measurements over a seven day period) were classified as complete responders (CR); a CR that persisted until study completion was considered a tumor-free survivor (TFS).
Efficacy could also be determined at study completion, using tumor growth delay (T-C) in days, which is calculated using the median time to endpoint (MTTE) value for each treatment (T) group versus control (C). A Log Rank multiple comparison test with Bonferroni-Holm adjustment for multiplicity was applied on individual TTE to compare the treated groups to the control group.
The efficacy of cabazitaxel in comparison with docetaxel on pediatric patient-derived tumor xenografts was determined experimentally in the following manner:
The animals subjected to the experiment are subcutaneously grafted unilaterally with approximately 30 mg of a tumor fragment from low passage pediatric patient-derived tumor xenografts. The animals are implanted with a human patient-derived pediatric tumor xenografted in immuno-compromised mice (Harlan; nu/nu). Several days post tumor implantation, mice are randomized according to their tumor burden to the different groups of treatments and controls. The agents are dosed intravenously at 5.8, 9.3, 15 or 24.2 mg/kg every 4 days for a total of 3 doses (q4d×3) to mice bearing a tumor burden at start of therapy (day 0) ranged from 125 to 250 mm^3.
Beginning Day 0, animals were observed daily and weighed twice weekly using a digital scale; data including individual and mean gram weights (Mean We±SD), mean percent weight change versus Day 0 were recorded for each group. Animal deaths were recorded daily and designated as drug-related (D), technical (T), tumor related (B), or unknown (U) based on weight loss and gross observation; single agent or combination groups reporting a mean >20% for a period of 7 days and/or >10% mortality were considered above the maximum tolerated dose (MTD) for that treatment on the evaluated regimen.
The selected tumor model, DM77, was a low passage patient-derived tumor xenograft derived from an osteosarcoma taken from the lung of a patient. […]

`CC(=O)O[C@@]12CO[C@@H]1C[C@H](O)[C@@]1(C)C(=O)[C@H](O)C3=C(C)[C@@H](OC(=O)[C@H](O)[C@@H](NC(=O)OC(C)(C)C)c4ccccc4)C[C@@](O)([C@@H](OC(=O)c4ccccc4)[C@H]21)C3(C)C` [Docetaxel, docetaxel] was tested, and the “#CR” value (5.8 mg/kg i.v./q4dx3) was 0/0/0, the “#PR” value (5.8 mg/kg i.v./q4dx3) was 0/0/0 and the “#TFS” value (5.8 mg/kg i.v./q4dx3) was 0/0/0. For the same molecule, the “Drug Deaths Total” value (5.8 mg/kg i.v./q4dx3) was 0, the “Weight Change at Nadir %” value (5.8 mg/kg i.v./q4dx3) was −6% and the “Weight Change at Nadir Day” value (5.8 mg/kg i.v./q4dx3) was 11 days. For the same molecule, the “Tumor Volume Data (Day 21) Median” value (5.8 mg/kg i.v./q4dx3) was 300 mm^3, the ΔT/ΔC % (5.8 mg/kg i.v./q4dx3) was 18.5% and the MTTE (5.8 mg/kg i.v./q4dx3) was 53 days. The T-C (5.8 mg/kg i.v./q4dx3) was 28 days, the ΔT/ΔC (5.8 mg/kg q4d×3 IV) was 18.5% and the “tumor volume changes from baseline, Median +/− nMAD” value (from here on “tumor volume changes from baseline”) (5.8 mg/kg, DAY 4) was 47 +/− 47. For the same molecule, the “tumor volume changes from baseline” value (5.8 mg/kg, DAY 7) was 73 +/− 23, the “tumor volume changes from baseline” value (5.8 mg/kg, DAY 11) was 122 +/− 56 and the “tumor volume changes from baseline” value (5.8 mg/kg, DAY 14) was 129 +/− 63. The “tumor volume changes from baseline” value (5.8 mg/kg, DAY 18) was 169 +/− 116, the “tumor volume changes from baseline” value (5.8 mg/kg, DAY 21) was 169 +/− 103 and the “tumor volume changes from baseline” value (5.8 mg/kg, DAY 25) was 217 +/− 151. The “tumor volume changes from baseline” value (5.8 mg/kg, DAY 28) was 290 +/− 198, the “tumor volume changes from baseline” value (5.8 mg/kg, DAY 32) was 332 +/− 266 and the “tumor volume changes from baseline” value (5.8 mg/kg, DAY 35) was 342 +/− 250. For the same molecule, the “tumor volume changes from baseline” value (5.8 mg/kg, DAY 39) was 342 +/− 121, the “tumor volume changes from baseline” value (5.8 mg/kg, DAY 42) was 401 +/− 169.5 and the “tumor volume changes from baseline” value (5.8 mg/kg, DAY 46) was 546 +/− 185.5. For the same molecule, the “tumor volume changes from baseline” value (5.8 mg/kg, DAY 49) was 512 +/− 142, the “tumor volume changes from baseline” value (5.8 mg/kg, DAY 53) was 657.5 and the “tumor volume changes from baseline” value (5.8 mg/kg, DAY 56) was 875.5. For the same molecule, the “#CR” value (9.3 mg/kg i.v./q4dx3) was 0/0/0, the “#PR” value (9.3 mg/kg i.v./q4dx3) was 0/0/0 and the “#TFS” value (9.3 mg/kg i.v./q4dx3) was 0/0/0. The “Drug Deaths Total” value (9.3 mg/kg i.v./q4dx3) was 0, the “Weight Change at Nadir %” value (9.3 mg/kg i.v./q4dx3) was −7% and the “Weight Change at Nadir Day” value (9.3 mg/kg i.v./q4dx3) was 14 days. For the same molecule, the “Tumor Volume Data (Day 21) Median” value (9.3 mg/kg i.v./q4dx3) was 266 mm^3, the ΔT/ΔC % (9.3 mg/kg i.v./q4dx3) was 9.6% and the MTTE (9.3 mg/kg i.v./q4dx3) was over 60 days. For the same molecule, the T-C (9.3 mg/kg i.v./q4dx3) was over 35 days, the “numbers of PR” value (9.3 mg/kg q4d×3 IV) was 0/9 and the ΔT/ΔC (9.3 mg/kg q4d×3 IV) was 9.6%. The “tumor volume changes from baseline” value (9.3 mg/kg, DAY 4) was 87 +/− 40, the “tumor volume changes from baseline” value (9.3 mg/kg, DAY 7) was 87 +/− 42 and the “tumor volume changes from baseline” value (9.3 mg/kg, DAY 11) was 96 +/− 77. The “tumor volume changes from baseline” value (9.3 mg/kg, DAY 14) was 96 +/− 69, the “tumor volume changes from baseline” value (9.3 mg/kg, DAY 18) was 96 +/− 69 and the “tumor volume changes from baseline” value (9.3 mg/kg, DAY 21) was 88 +/− 74. The “tumor volume changes from baseline” value (9.3 mg/kg, DAY 25) was 124 +/− 93, the “tumor volume changes from baseline” value (9.3 mg/kg, DAY 28) was 124 +/− 171 and the “tumor volume changes from baseline” value (9.3 mg/kg, DAY 32) was 154 +/− 201. The “tumor volume changes from baseline” value (9.3 mg/kg, DAY 35) was 169 +/− 235, the “tumor volume changes from baseline” value (9.3 mg/kg, DAY 39) was 202 +/− 268 and the “tumor volume changes from baseline” value (9.3 mg/kg, DAY 42) was 309 +/− 375. The “tumor volume changes from baseline” value (9.3 mg/kg, DAY 46) was 309 +/− 375, the “tumor volume changes from baseline” value (9.3 mg/kg, DAY 49) was 424.5 and the “tumor volume changes from baseline” value (9.3 mg/kg, DAY 53) was 542 +/− 447.5. The “tumor volume changes from baseline” value (9.3 mg/kg, DAY 56) was 493 +/− 238, the “#CR” value (15 mg/kg i.v./q4dx3) was 0 and the “#PR” value (15 mg/kg i.v./q4dx3) was 3. The “#TFS” value (15 mg/kg i.v./q4dx3) was 0, the “Drug Deaths Total” value (15 mg/kg i.v./q4dx3) was 0 and the “Weight Change at Nadir %” value (15 mg/kg i.v./q4dx3) was −14%. For the same molecule, the “Weight Change at Nadir Day” value (15 mg/kg i.v./q4dx3) was 11 days, the “Tumor Volume Data (Day 21) Median” value (15 mg/kg i.v./q4dx3) was 78 mm^3 and the ΔT/ΔC % (15 mg/kg i.v./q4dx3) was −5.9%. The MTTE (15 mg/kg i.v./q4dx3) was over 60 days, the T-C (15 mg/kg i.v./q4dx3) was over 35 days and the “tumor volume changes from baseline” value (15 mg/kg, DAY 4) was 66 +/− 66. For the same molecule, the “tumor volume changes from baseline” value (15 mg/kg, DAY 7) was 73 +/− 73, the “tumor volume changes from baseline” value (15 mg/kg, DAY 11) was −41 +/− 41 and the “tumor volume changes from baseline” value (15 mg/kg, DAY 14) was −41 +/− 41. For the same molecule, the “tumor volume changes from baseline” value (15 mg/kg, DAY 18) was −53 +/− 17, the “tumor volume changes from baseline” value (15 mg/kg, DAY 21) was −54 +/− 12 and the “tumor volume changes from baseline” value (15 mg/kg, DAY 25) was −66 +/− 17. For the same molecule, the “tumor volume changes from baseline” value (15 mg/kg, DAY 28) was −66 +/− 17, the “tumor volume changes from baseline” value (15 mg/kg, DAY 32) was −66 +/− 17 and the “tumor volume changes from baseline” value (15 mg/kg, DAY 35) was −66 +/− 13. For the same molecule, the “tumor volume changes from baseline” value (15 mg/kg, DAY 39) was −66 +/− 13, the “tumor volume changes from baseline” value (15 mg/kg, DAY 42) was −66 +/− 13 and the “tumor volume changes from baseline” value (15 mg/kg, DAY 46) was −58 +/− 11. For the same molecule, the “tumor volume changes from baseline” value (15 mg/kg, DAY 49) was −58 +/− 11, the “tumor volume changes from baseline” value (15 mg/kg, DAY 53) was −58 +/− 11 and the “tumor volume changes from baseline” value (15 mg/kg, DAY 56) was −58 +/− 11. For the same molecule, the “#CR” value (24.2 mg/kg i.v./q4dx3) was 1, the “#PR” value (24.2 mg/kg i.v./q4dx3) was 6 and the “#TFS” value (24.2 mg/kg i.v./q4dx3) was 1. For the same molecule, the “Drug Deaths Total” value (24.2 mg/kg i.v./q4dx3) was 0, the “Weight Change at Nadir %” value (24.2 mg/kg i.v./q4dx3) was −17% and the “Weight Change at Nadir Day” value (24.2 mg/kg i.v./q4dx3) was 14 days. The “Tumor Volume Data (Day 21) Median” value (24.2 mg/kg i.v./q4dx3) was 71.5 mm^3, the ΔT/ΔC % (24.2 mg/kg i.v./q4dx3) was −6.1% and the MTTE (24.2 mg/kg i.v./q4dx3) was over 60 days. The T-C (24.2 mg/kg i.v./q4dx3) was over 35 days, the “tumor volume changes from baseline” value (24.2 mg/kg, DAY 4) was 0 +/− 0 and the “tumor volume changes from baseline” value (24.2 mg/kg, DAY 7) was 0 +/− 0. The “tumor volume changes from baseline” value (24.2 mg/kg, DAY 11) was −50 +/− 24, the “tumor volume changes from baseline” value (24.2 mg/kg, DAY 14) was −55.5 +/− 20 and the “tumor volume changes from baseline” value (24.2 mg/kg, DAY 18) was −55.5 +/− 20. For the same molecule, the “tumor volume changes from baseline” value (24.2 mg/kg, DAY 21) was −55.5 +/− 10.5, the “tumor volume changes from baseline” value (24.2 mg/kg, DAY 25) was −55.5 +/− 10.5 and the “tumor volume changes from baseline” value (24.2 mg/kg, DAY 28) was −53.5 +/− 13. The “tumor volume changes from baseline” value (24.2 mg/kg, DAY 32) was −53.5 +/− 33, the “tumor volume changes from baseline” value (24.2 mg/kg, DAY 35) was −57.5 +/− 45.5 and the “tumor volume changes from baseline” value (24.2 mg/kg, DAY 39) was −57.5. The “tumor volume changes from baseline” value (24.2 mg/kg, DAY 42) was −57.5, the “tumor volume changes from baseline” value (24.2 mg/kg, DAY 46) was −57.5 and the “tumor volume changes from baseline” value (24.2 mg/kg, DAY 49) was −48 +/− 45.5. The “tumor volume changes from baseline” value (24.2 mg/kg, DAY 53) was −48 +/− 69.5 and the “tumor volume changes from baseline” value (24.2 mg/kg, DAY 56) was −48 +/− 69.5.
